The text below walks through data of patent US10550102B2, “Indane and indoline derivatives and the use thereof as soluble guanylate cyclase activators” (NOVARTIS AG, priority 2014, dated 2020).

Sequence of soluble guanylate cyclase (human GUCYA3 and GUCYB3) overexpressed in CHO cells (Homo sapiens (Human), UniProt Q02108+Q02153) (Q02108 whole entry partner): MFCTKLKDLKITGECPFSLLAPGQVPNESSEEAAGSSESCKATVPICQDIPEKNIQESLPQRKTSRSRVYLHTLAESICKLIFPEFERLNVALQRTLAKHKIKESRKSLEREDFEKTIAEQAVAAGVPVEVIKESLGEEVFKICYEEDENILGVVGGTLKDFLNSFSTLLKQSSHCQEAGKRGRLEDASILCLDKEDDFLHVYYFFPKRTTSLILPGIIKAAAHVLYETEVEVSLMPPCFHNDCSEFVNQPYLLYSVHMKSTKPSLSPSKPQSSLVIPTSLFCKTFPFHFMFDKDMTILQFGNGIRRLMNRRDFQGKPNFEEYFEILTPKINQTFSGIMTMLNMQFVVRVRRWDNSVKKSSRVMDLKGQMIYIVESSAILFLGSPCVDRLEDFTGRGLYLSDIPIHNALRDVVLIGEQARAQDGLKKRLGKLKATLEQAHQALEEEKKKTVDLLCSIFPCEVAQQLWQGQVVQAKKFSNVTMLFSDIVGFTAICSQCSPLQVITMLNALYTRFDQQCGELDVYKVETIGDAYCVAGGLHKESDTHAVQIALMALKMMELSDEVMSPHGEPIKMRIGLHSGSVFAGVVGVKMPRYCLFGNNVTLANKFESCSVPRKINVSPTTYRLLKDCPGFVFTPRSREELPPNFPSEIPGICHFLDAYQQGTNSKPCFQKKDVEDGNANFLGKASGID
Sequence of soluble guanylate cyclase (human GUCYA3 and GUCYB3) overexpressed in CHO cells (Homo sapiens (Human), UniProt Q02108+Q02153) (Q02153 whole entry): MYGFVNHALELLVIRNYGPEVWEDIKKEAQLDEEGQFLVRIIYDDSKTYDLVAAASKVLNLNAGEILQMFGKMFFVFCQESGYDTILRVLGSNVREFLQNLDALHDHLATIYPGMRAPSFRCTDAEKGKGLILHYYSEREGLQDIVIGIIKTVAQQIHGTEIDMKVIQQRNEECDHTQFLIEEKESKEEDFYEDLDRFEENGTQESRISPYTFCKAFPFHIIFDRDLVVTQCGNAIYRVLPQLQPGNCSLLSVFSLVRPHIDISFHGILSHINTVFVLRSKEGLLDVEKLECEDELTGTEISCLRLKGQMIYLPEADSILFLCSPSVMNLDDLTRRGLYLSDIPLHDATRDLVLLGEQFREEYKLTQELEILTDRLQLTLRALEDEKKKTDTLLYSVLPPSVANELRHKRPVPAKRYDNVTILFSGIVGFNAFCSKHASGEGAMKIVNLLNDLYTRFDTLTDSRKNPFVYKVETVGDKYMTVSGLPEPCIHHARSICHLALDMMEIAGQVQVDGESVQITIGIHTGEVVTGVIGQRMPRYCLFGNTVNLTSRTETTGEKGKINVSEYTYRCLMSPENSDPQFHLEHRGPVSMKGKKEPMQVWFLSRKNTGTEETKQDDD
Sequence of soluble guanylate cyclase (human GUCYA3 and GUCYB3) overexpressed in CHO cells (Homo sapiens (Human), UniProt Q02153) (Q02108 whole entry partner): as the sequence (Q02108 whole entry partner) above
Sequence of soluble guanylate cyclase (human GUCYA3 and GUCYB3) overexpressed in CHO cells (Homo sapiens (Human), UniProt Q02153) (Q02153 whole entry): as the sequence (Q02153 whole entry) above

The target in the first assay is soluble guanylate cyclase (human GUCYA3 and GUCYB3) overexpressed in CHO cells (Homo sapiens (Human), UniProt Q02108+Q02153). Nature of the assay: CHO cellular assay (cGMP production, Cisbio cGMP HTRF kit). The class given is cell-based. To be noted: CHO GUCY clone 8E10, cGMP production, assay buffer with 1 mM IBMX and 20 uM ODQ, 1 h room temperature; minimum quantification limit 0.5 nM (listed 0.5 nM means ≤0.5 nM); read-out: EC50. The method, boiled down:
(§1)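 Stable CHO-K1 clone 8E10 expressing human sGC (GUCYA3/GUCYB3), 3000 cells/well, exposed 1 h at room temperature to activators in HBSS, 0.1% BSA, 1 mM IBMX, 20 uM ODQ, 0.5% DMSO final. cGMP was measured by HTRF and interpolated from a standard curve. EC50 came from a 4-parameter sigmoidal fit.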
On to `CCC[C@H](O)C(=O)N1CCC(c2ccc(O[C@H]3CCc4cccc(-c5cccc(-n6ncc(C(=O)O)c6CC)n5)c43)cc2CC)CC1` [Example 31-1], for which the EC50 was at most 0.5 nM. On the same count and under the same terms, the value for `CCc1cc(O[C@H]2CCc3cccc(-c4cccc(-n5ncc(C(=O)O)c5CC)n4)c32)ccc1C1CCN(C(=O)[C@@H](O)CC)CC1` [Example 31-2] was at most 0.5 nM; that for `CCc1cc(O[C@H]2CCc3cccc(-c4cccc(-n5ncc(C(=O)O)c5CC)n4)c32)ccc1C1CCN(C(=O)[C@@H](C)CO)CC1` [Example 31-3, 5-Ethyl-1-(6-((S)-3-(3-ethyl-4-(1-((S)-3-hydroxy-2-methylpropanoyl)piperidin-4-yl)phenoxy)-2-3-dihydro-1H-inden-4-yl)pyridin-2-yl)-1H-pyrazole-4-carboxylic acid] was at most 0.5 nM. As for `CCc1cc(O[C@H]2CCc3cccc(-c4cccc(-n5ncc(C(=O)O)c5CC)n4)c32)ccc1C1CCN(C(=O)C2(O)CCC2)CC1` [Example 31-4, (S)-5-Ethyl-1-(6-(3-(3-ethyl-4-(1-(1-hydroxycyclobutanecarbonyl)piperidin-4-yl)phenoxy)-2,3-dihydro-1H-inden-4-yl)pyridin-2-yl)-1H-pyrazole-4-carboxylic acid], the EC50 is at most 0.5 nM.

As for `CCc1cc(O[C@H]2CCc3cccc(-c4cccc(-n5ncc(C(=O)O)c5CC)n4)c32)ccc1C1CCN(C(=O)C2(O)CC2)CC1` [Example 33, (S)-5-ethyl-1-(6-(3-(3-ethyl-4-(1-(1-hydroxycyclopropanecarbonyl)piperidin-4-yl)phenoxy)-2,3-dihydro-1H-inden-4-yl)pyridin-2-yl)-1H-pyrazole-4-carboxylic Acid], the EC50 is at most 0.5 nM. Turning to `CCOC(=O)N1CCC(c2ccc(NC3CCc4cccc(-c5cccc(-n6ncc(C(=O)O)c6C)n5)c43)c(C)c2)CC1` (centres unmarked) [Example 52-4], the EC50 was at most 0.5 nM. The same measure, in the same setting: with `COCCOC(=O)N1CCC(c2ccc(NC3CCc4cccc(-c5cccc(-n6ncc(C(=O)O)c6C)n5)c43)c(C)c2)CC1` (centres unmarked) [Example 52-5] the figure was 1 nM; with `C=C(C)OC(=O)N1CCC(c2ccc(NC3CCc4cccc(-c5cccc(-n6ncc(C(=O)O)c6C)n5)c43)c(C)c2)CC1` (centres unmarked) [Example 52-6, 5-Methyl-1-(6-(3-((2-methyl-4-(1-((prop-1-en-2-yloxy)carbonyl)piperidin-4-yl)phenyl)amino)-2,3-dihydro-1H-inden-4-yl)pyridin-2-yl)-1H-pyrazole-4-carboxylic acid], 1.4 nM; with `CCc1cc(O[C@H]2CCc3cccc(-c4cccc(-n5ncc(C(=O)O)c5CC)n4)c32)ccc1C1CCN(C(=O)OCc2ccccc2)CC1` [Example 64-1, (S)-1-(6-(3-(4-(1-((Benzyloxy)carbonyl)pipendin-4-yl)-3-ethylphenoxy)-2,3-dihydro-1H-inden-4-yl)pyridin-2-yl)-5-ethyl-1H-pyrazole-4-carboxylic acid], 2 nM. As for `CCc1cc(O[C@H]2CCc3cccc(-c4cccc(-n5ncc(C(=O)O)c5CC)n4)c32)ccc1C1CCN(C(=O)OCC2CC2)CC1` [Example 64-6, (S)-1-(6-(3-(4-(1-((Cyclopropylmethoxy)carbonyl)piperidin-4-yl)-3-ethylphenoxy)-2,3-dihydro-1H-inden-4-yl)pyridin-2-yl)-5-ethyl-1H-pyrazole-4-carboxylic acid], the EC50 turned out to be 1.4 nM.

For `CCc1cc(O[C@H]2CCc3cccc(-c4cccc(-n5ncc(C(=O)O)c5CC)n4)c32)ccc1C1CCN(S(C)(=O)=O)CC1` [Example 64-8, (S)-5-Ethyl-1-(6-(3-(3-ethyl-4-(1-(methylsulfonyl)piperidin-4-yl)phenoxy)-2,3-dihydro-1H-inden-4-yl)pyridin-2-yl)-1H-pyrazole-4-carboxylic acid], the EC50 was at most 0.5 nM.

Staying with this assay, now noted: EC50 (nM).
For the compound `CCc1cc(O[C@H]2CCc3cccc(-c4cccc(-n5ncc(C(=O)O)c5CC)n4)c32)ccc1C1CCN(C(=O)OCC(C)C)CC1` [Example 64-2, (S)-5-Ethyl-1-(6-(3-(3-ethyl-4-(1-(isobutoxycarbonyl)piperidin-4-yl)phenoxy)-2,3-dihydro-1H-inden-4-yl)pyridin-2-yl)-1H-pyrazole-4-carboxylic acid], it took 3 nM to reach a half-maximal effect (EC50). `CCc1cc(O[C@H]2CCc3cccc(-c4cccc(-n5ncc(C(=O)O)c5CC)n4)c32)ccc1C1CCN(C(=O)OC(C)C)CC1` [Example 64-3, (S)-5-Ethyl-1-(6-(3-(3-ethyl-4-(1-(isopropoxycarbonyl)piperidin-4-yl)phenoxy)-2,3-dihydro-1H-inden-4-yl)pyridin-2-yl)-1H-pyrazole-4-carboxylic acid]: the response was half-maximal at 1 nM (EC50). Compound `CCCOC(=O)N1CCC(c2ccc(O[C@H]3CCc4cccc(-c5cccc(-n6ncc(C(=O)O)c6CC)n5)c43)cc2CC)CC1` [Example 64-4, (S)-5-Ethyl-1-(6-(3-(3-ethyl-4-(1-(propoxycarbonyl)piperidin-4-yl)phenoxy)-2,3-dihydro-1H-inden-4-yl)pyridin-2-yl)-1H-pyrazole-4-carboxylic acid] registered an EC50 of at most 0.5 nM. Same read-out and setting: the value for `C=CCOC(=O)N1CCC(c2ccc(O[C@H]3CCc4cccc(-c5cccc(-n6ncc(C(=O)O)c6CC)n5)c43)cc2CC)CC1` [Example 64-5, (S)-1-(6-(3-(4-(1-((Allyloxy)carbonyl)piperidin-4-yl)-3-ethylphenoxy)-2,3-dihydro-1H-inden-4-yl)pyridin-2-yl)-5-ethyl-1H-pyrazole-4-carboxylic acid] was at most 0.5 nM.

The next assay deals with soluble guanylate cyclase (human GUCYA3 and GUCYB3) overexpressed in CHO cells (Homo sapiens (Human), UniProt Q02153). Described as above. The following applies: CHO GUCY clone 8E10, cGMP production, assay buffer with 1 mM IBMX and 20 uM ODQ, 1 h room temperature; minimum quantification limit 0.5 nM (listed 0.5 nM means ≤0.5 nM). It is filed as cell-based. A digest of the protocol:
as §1
Compound `CCc1cc(CN2CC(C)c3cccc(-c4cccc(-n5ncc(C(=O)O)c5CC)n4)c32)ccc1C1CCN(C(=O)[C@H](C)O)CC1` (single isomer, unassigned) [Example 17b] yielded an EC50 of at most 0.5 nM. For `CCc1cc(O[C@H]2CCc3cccc(-c4cccc(-n5ncc(C(=O)O)c5CC)n4)c32)ccc1C1CCN(C(=O)C(C)CCO)CC1` (single isomer, unassigned) [Example 32b], the EC50 is at most 0.5 nM. `CCc1cc(CN2CC(C)c3cccc(-c4cccc(-n5ncc(C(=O)O)c5CC)n4)c32)ccc1C1CCN(C(=O)C2CC2)CC1` (single isomer, unassigned; (-)) [(−)-20-1, (−)-1-(6-(1-(4-(1-(Cyclopropanecarbonyl)piperidin-4-yl)-3-ethylbenzyl)-3-methylindolin-7-yl)pyridin-2-yl)-5-ethyl-1H-pyrazole-4-carboxylic acid] displayed an EC50 of at most 0.5 nM. Take `CCc1cc(CN2CC(C)c3cccc(-c4cccc(-n5ncc(C(=O)O)c5C)n4)c32)ccc1C1CCN(C(=O)C2CC2)CC1` (single isomer, unassigned; (-)) [(−)-20-3, (−)-1-(6-(1-(4-(1-(Cyclopropanecarbonyl)piperidin-4-yl)-3-ethylbenzyl)-3-methylindolin-7-yl)pyridin-2-yl)-5-methyl-1H-pyrazole-4-carboxylic acid]: the EC50 was at most 0.5 nM. On the same count and under the same terms, with `Cc1cc(C2CCN(C(=O)C3CC3)CC2)ccc1OC1CCc2cccc(-c3cccc(-n4ncc(C(=O)O)c4C(F)(F)F)n3)c21` (single isomer, unassigned; (-)) [Example 3b] the figure was 6.9 nM.

Regarding `O=C(O)c1cnn(-c2cccc(-c3cccc4c3C(Oc3ccc5c(c3)CCN(Cc3ccccn3)C5)CC4)n2)c1C(F)(F)F` (single isomer, unassigned; (-)) [Example 4b, (−)-1-(6-(3-((2-(Pyridin-2-ylmethyl)-1,2,3,4-tetrahydroisoquinolin-6-yl)oxy)-2,3-dihydro-1H-inden-4-yl)pyridin-2-yl)-6-(trifluoromethyl)-1H-pyrazole-4-carboxylic Acid], the EC50 was found to be 116 nM.

The compound `CCc1cc(CN2CC(C)c3cccc(-c4cccc(-n5ncc(C(=O)O)c5C(F)(F)F)n4)c32)ccc1C1CCN(C(=O)C2CC2)CC1` (single isomer, unassigned; (-)) [Example 19b, (−)-1-(6-(1-(4-(1-(Cyclopropanecarbonyl)piperidin-4-yl)-3-ethylbenzyl)-3-methylindolin-7-yl)pyridin-2-yl)-5-(trifluoromethyl)-1H-pyrazole-4-carboxylic Acid] came in with an EC50 of at most 0.5 nM.

In turn, `CCc1cc(NC2CCc3cccc(-c4cccc(-n5ncc(C(=O)O)c5CC)n4)c32)ccc1C1CCN(C(=O)[C@H](C)O)CC1` (single isomer, unassigned; (-)) [Example 48b] registered an EC50 of 11 nM. For the compound `CCC[C@H](O)C(=O)N1CCC(c2ccc(NC3CCc4cccc(-c5cccc(-n6ncc(C(=O)O)c6CC)n5)c43)cc2CC)CC1` (single isomer, unassigned; (-)) [Example 49b], the response was half-maximal at 20 nM (EC50). `O=C(O)c1cnn(-c2cccc(-c3cccc4c3C(Oc3ccc(C5CCN(C(=O)C6CC6)CC5)cc3C(F)(F)F)CC4)n2)c1C(F)(F)F` (single isomer, unassigned; enantiomer-1) [61. b). (enantiomer-1), (+)- or (−)-1-(6-(3-(4-(1-(Cyclopropanecarbonyl)piperidin-4-yl)-2-(trifluoromethyl)phenoxy)-2,3-dihydro-1H-inden-4-yl)pyridin-2-yl)-5-(trifluoromethyl)-1H-pyrazole-4-carboxylic acid]: the EC50 is 15 nM.

For the compound `O=C(O)c1cnn(-c2cccc(-c3cccc4c3C(Oc3ccc(C5CCN(C(=O)C6CC6)CC5)cc3C(F)(F)F)CC4)n2)c1C(F)(F)F` (single isomer, unassigned; enantiomer-2) [61. b). (enantiomer-2), (−)- or (+)-1-(6-(3-(4-(1-(cyclopropanecarbonyl)piperidin-4-yl)-2-(trifluoromethyl)phenoxy)-2,3-dihydro-1H-inden-4-yl)pyridin-2-yl)-5-(trifluoromethyl)-1H-pyrazole-4-carboxylic acid], the EC50 was determined as 2 nM.

The EC50 is the concentration giving half of the maximal effect.
